Reference: patent publication US20220024872A1, “ISOLATION AND CHARACTERIZATION OF ANTICANCER COMPOUND FROM SESUVIUM PORTULACASTRUM (L.) L” (priority 2019, published 2022)
Converted amounts (≈) assume the structure as drawn. “And” between values parts separate entries of the source, which are not always exact repeats. Equal entries are not always repeated. Values belong to the molecule of their own block, whether it stands above or below them.

Columns and labels:
[1] = test system: human neuroblastoma cells (IMR-32); test: MTT cell proliferation assay, IMR-32; type: cell-based
Description: (§1) Anticancer activity of crude extracts were evaluated against four cell lines, human triple negative breast cancer cells (MDA-MB-231), estrogen positive breast cancer cells (MCF-7), human neuroblastoma cells (IMR-32) and human colon cancer cells (HCT-116) that were procured from NCCS-Pune using 3-(4,5-Dimethylthiazol-2-Yl)-2,5-Diphenyltetrazolium Bromide (MTT) assay.
(§2) In vitro cytotoxic activity of all the extracts was determined by MTT assay as described by Manikandan et al. (2017) with slight modification. After trypsinization, viable cells were counted by trypan blue exclusion in a hemocytometer and diluted with the medium.
(§3) The cells were seeded in 96 well plate at a density of 1-2×10^4 cells per well. The plate was incubated at 37° C. in a 5% CO2 atmosphere. The following day media was removed and the cells were treated with standard, doxorubicin (0.1-4 μg/ml) or plant extract at different concentrations (100-500 μg/ml). The extract was initially dissolved in 1:1 ratio of ethanol-ethyl acetate mixture and further diluted in medium to get the required concentrations. As plant extracts were dissolved in ethyl acetate and as ethyl acetate is not miscible with cell culture media, a mixture of ethanol-ethyl acetate in a ratio of 1:1 is used for all the cell culture experiments. The final mixture used for treating the cells contained not more than 0.5% of the ethanol-ethyl acetate mixture. Negative controls were treated with the same percentage of ethanol-ethyl acetate mixture.
(§4) The treated plate was incubated at 37° C. in a humidified incubator with 5% CO2 for 24 h. After the incubation period, the media was removed, 100 μl of 0.1 mg/ml MTT reagent was added and incubated at 37° C. in a humidified incubator with 5% CO2 for 1 h till purple MTT formazan crystals were visible under the microscope. The formazan crystals were dissolved by adding 100 μl DMSO and spectrophotometric readings were taken at 540 nm.
(§5) The cytotoxic activity of standard or plant extract was calculated as the percentage of cell growth inhibition by using the following formula.
(§6) Where Acontrol indicates the absorbance of control containing 0.5% ethanol-ethyl acetate mixture. Asample is the absorbance of treated cells at different concentrations. IC50 values (the concentration of sample required for inhibition of 50% of cell growth) were obtained from the regression line.
(§7) The anticancer potential of the anticancer compound against MDA-MB-231, MCF-7, IMR-32 and HCT-116 cells was evaluated at different concentrations (40, 80, 120, 160 and 200 μg/ml) and different incubation times (24 h, 48 h, 72 h) using MTT assay by the method described above.

[2] = test system: human colon cancer cells (HCT-116); test: MTT cell proliferation assay, HCT-116; type: cell-based
Description: as §1, §2, §3, §4, §5, §6, §7

[3] = test system: IMR-32 cells; test: Gene expression by PCR relative to β-actin, IMR-32; type: cell-based, human; conditions: IMR-32, 87 μg/ml, 72 h
Description: (§8) FIG. 7. Detection of genes by PCR. Lane 1: MDA-MB-231 control cells; lane 2: MDA-MB-231 cells treated with anticancer compound (96 μg/ml) for 72 h; lane 3: IMR-32 control cells; lane 4: IMR-32 cells treated with anticancer compound (87 μg/ml) for 72 h; control cells are treated with 0.2% of ethanol-ethyl acetate mixture at 1:1 ratio.
(§9) Genetic level changes associated with the treatment of anticancer compound in MDA-MB-231 and IMR-32 cells were studied by isolating the RNA, reverse transcribing the RNA to cDNA, amplifying the genes using specific primers. The resulting bands were analyzed using image J and the expression of each gene was represented as relative gene expression using the β-actin gene as a control.

[4] = test system: human triple negative breast cancer cells (MDA-MB-231); test: MTT cell proliferation assay, MDA-MB-231; type: cell-based
Description: as §1, §2, §3, §4, §5, §6
Further, the most polar band from all the fractions was combined and termed as fraction 29. All the compounds separated along with crude diethyl ether extract were analyzed for their anticancer potential against MDA-MB-231 cells at a concentration of 300 μg/ml using MTT assay as described above. Cytotoxic activity was expressed as percentage inhibition of cells at 300 μg/ml.
as §7

[5] = test system: MDA-MB-231 cells; test: Gene expression by PCR relative to β-actin, MDA-MB-231; type: cell-based, human; conditions: MDA-MB-231, 96 μg/ml, 72 h
Description: as §8, §9

[6] = test system: human peripheral blood lymphocytes; test: Trypan blue exclusion assay, lymphocyte viability; type: cell-based
Description: In order to know the side effects associated with the treatment of anticancer compound, the effect of the anticancer compound on the viability of human peripheral blood lymphocytes was determined using trypan blue exclusion assay. Along with the viability of lymphocytes, the viability of different cancer cells at that particular concentration and incubation time are shown in Table 6.

[7] = test system: IMR-32 cells; test: Cell cycle progression, IMR-32; type: cell-based, human
[8] = test system: estrogen positive breast cancer cells (MCF-7); test: MTT cell proliferation assay, MCF-7; type: cell-based; conditions: Homo sapiens
Description: as §1, §2, §3, §4, §5, §6, §7

[9] = test system: MDA-MB-231; test: Cell cycle progression, MDA-MB-231; type: cell-based, human
[10] = test system: lymphocytes; conditions: 1 μg/ml, 24 h; cited from earlier work

- IC50 ([1]; IMR-32, 24 h): 224 ± 7.21 µg/mL (≈ 663 µM)
- IC50 ([1]; IMR-32, 48 h): 165.2 ± 0.87 µg/mL (≈ 489 µM)
- IC50 ([1]; IMR-32, 72 h): 87.8 µg/mL (≈ 260 µM)
- IC50 ([2]; HCT-116, 24 h): 179 ± 6.12 µg/mL (≈ 531 µM)
- IC50 ([2]; HCT-116, 48 h): 162 ± 5.02 µg/mL (≈ 478 µM)
- IC50 ([2]; HCT-116, 72 h): 159 µg/mL (≈ 470 µM)
- IC50 ([4]; MDA-MB-231, 24 h): 199.2 ± 0.5 µg/mL (≈ 590 µM)
- IC50 ([4]; MDA-MB-231, 48 h): 99.1 ± 1.6 µg/mL (≈ 294 µM)
- IC50 ([4]; MDA-MB-231, 72 h): 96.2 ± 1.75 µg/mL (≈ 285 µM)
- IC50 ([8]; MCF7, 24 h): 243 µg/mL (≈ 719 µM)
- IC50 ([8]; MCF7, 48 h): 183 ± 6.29 µg/mL (≈ 543 µM)
- IC50 ([8]; MCF7, 72 h): 155 ± 5.24 µg/mL (≈ 458 µM)
SMILES: Cc1cnc(-c2ccc(CCCCCCCC(C)C)cc2)c(C)c1C [Compound 16, 3,4,5-trimethyl-2-(4-(8-methylnonyl)phenyl)pyridine]
- viability at 300 µg/mL ([1]; IMR-32, 300 μg/ml, 72 h, read-out: Viability percentage IMR-32): 0%
- viability at 350 µg/mL ([1]; IMR-32, 350 μg/ml, 48 h, read-out: Viability percentage IMR-32): 0%
- viability at 400 µg/mL ([1]; IMR-32, 400 μg/ml, 24 h, read-out: Viability percentage IMR-32): 0%
- viability at 300 µg/mL ([2]; HCT-116, 300 μg/ml, 72 h, read-out: Viability percentage HCT-116): 3.29 ± 3.15%
- viability at 350 µg/mL ([2]; HCT-116, 350 μg/ml, 48 h, read-out: Viability percentage HCT-116): 0%
- viability at 400 µg/mL ([2]; HCT-116, 400 μg/ml, 24 h, read-out: Viability percentage HCT-116): 0%
- Bcl-2 gene expression vs control [3]: no change in the expression levels
- IKK-β gene expression vs control [3]: downregulation
- Nrf2 gene expression vs control [3]: reduced expression level
- caspase-3 gene expression vs control [3]: upregulation
- p53 gene expression vs control [3]: reduced
- viability at 300 µg/mL ([4]; MDA-MB-231, 300 μg/ml, 72 h, read-out: Viability percentage MDA-MB-231): 0%
- viability at 350 µg/mL ([4]; MDA-MB-231, 350 μg/ml, 48 h, read-out: Viability percentage MDA-MB-231): 0%
- viability at 400 µg/mL ([4]; MDA-MB-231, 400 μg/ml, 24 h, read-out: Viability percentage MDA-MB-231): 0%
- inhibition at 300 µg/mL ([4]; MDA-MB-231 cells, 300 μg/ml, read-out: Percentage Inhibition): 94.54 ± 0.59%
- Bcl-2 gene expression vs control [5]: reduced expression levels
- IKK-β gene expression vs control [5]: almost similar in treated and control cells
- Nrf2 gene expression vs control [5]: downregulation
- caspase-3 gene expression vs control [5]: upregulation
- p53 gene expression vs control [5]: reduced
- Viability percentage Lymphocytes ([6]; 300 μg/ml, 72 h, listed as anticancer compound): 74.94% and 74.94 ± 1.50%
- Viability percentage Lymphocytes ([6]; 350 μg/ml, 48 h): 82.11 ± 1.42%
- Viability percentage Lymphocytes ([6]; 400 μg/ml, 24 h, listed as anticancer compound): 91.04% and 90.40 ± 4.02%
- phase at which cell cycle progression is inhibited [7]: G1 phase
- viability at 300 µg/mL ([8]; MCF7, 300 μg/ml, 72 h, read-out: Viability percentage MCF-7): 0%
- viability at 350 µg/mL ([8]; MCF7, 350 μg/ml, 48 h, read-out: Viability percentage MCF-7): 0%
- viability at 400 µg/mL ([8]; MCF7, 400 μg/ml, 24 h, read-out: Viability percentage MCF-7): 0%
- phase at which cell cycle progression is inhibited [9]: G2/M phase

- IC50 ([1]; IMR-32, crude extracts 100-500 μg/ml, doxorubicin 0.1-4 μg/ml, 24 h): 0.5 µg/mL (≈ 0.92 µM)
- IC50 ([2]; HCT-116, crude extracts 100-500 μg/ml, doxorubicin 0.1-4 μg/ml, 24 h): 0.4 µg/mL (≈ 0.736 µM)
- IC50 ([4]; MDA-MB-231, crude extracts 100-500 μg/ml, doxorubicin 0.1-4 μg/ml, 24 h): 0.83 ± 0.03 µg/mL (≈ 1.53 µM)
- IC50 ([8]; MCF7, crude extracts 100-500 μg/ml, doxorubicin 0.1-4 μg/ml, 24 h): 0.66 ± 0.04 µg/mL (≈ 1.21 µM)
SMILES: COc1cccc2c1C(=O)c1c(O)c3c(c(O)c1C2=O)C[C@@](O)(C(=O)CO)C[C@@H]3O[C@H]1C[C@H](N)[C@H](O)[C@H](C)O1 [Doxorubicin, doxorubicin, reference compound]
- lymphocyte viability [10]: 65%
